Columns and labels:
[1] = Clinical case: therapeutic effect on AZOOR, static visual field examination (Humphrey visual field analyzer); type: in vivo; conditions: one AZOOR patient
Excerpt: Case: History of the present illness: The patient became aware of dark and blurred vision in the center of their visual field on September 1, 1999, and visited Ohyachi Kyoritsu Eye Clinic on September 4 in the same year.. […] ERG was subnormal and normal for the right and left eyes, respectively. […] FAG detected mild leakage of fluorescein from the optic disc of the right eye. In view of these observations, optic nerve disorder was suspected and the patient was made to visit a brain surgeon in the neighborhood to receive CT and MRT examinations. However, no abnormality was found. […] To treat the eye symptom, the clinic prescribed oral medications such as drug for ameliorating circulation for a while, but no improvement of visual field was observed. Thus, on October 1, 1999, the patient was referred to the Department of ophthalmology at Sapporo Medical University, School of Medicine for close examination. Results of the first examination: Visual acuity was Vd=1.2 and Vs=1.2. Although pupils were round and equal in size, the right eye was RAPD(+) but no oculomotor abnormalities were observed. […] In the static visual field examination, reduction of the sensitivity in the central visual field was observed. Course of disease: Oral administration of prednisolone (40mg/day) was started on October 1, 1999. […]

apoptosis caused by CAR = assay: Therapeutic effect on cancer-associated neuropathy: ERG in rats after intravitreal anti-recoverin and anti-hsp70 antibodies; type: in vivo; conditions: Lewis rats, light for 24 hours; nilvadipine 3.2 mg/kg/day peritoneal for two weeks with antibody infusion into vitreous body; follow-up five weeks; compared with predonine 0.6 µg/kg/day i.m. and cyclosporine A 10 mg/kg/day i.m.; Fig. 1
Experimental: Test animal: Lewis rats (8 weeks of age) Treatment group 5 animals (10 eyes) Control group 5 animals (10 eyes) Photoenvironment: Apoptosis (cell death) was induced under light for 24 hours. Test drugs: Nilvadipine (3.2 mg/kg/day) by peritoneal administration (dissolving solution) polyethylene glycol 400: ethanol: water = 1:1:2 Predonine (0.6 µg/kg/day) by intramuscular injection (dissolving solution) PBS (phosphate buffer solution) Cyclosporine A (10 mg/kg/day) by intramuscular injection (dissolving solution) olive oil Antibodies: anti-recoverin antibody (5 µl/eye) anti-hsp70 antibody (5 µl/eye) Administration method: Test drugs were administered for two weeks along with infusion of antibodies into vitreous body of the eye. Follow-up observation was performed for five weeks after the start of administration. PBS alone was administered to the control group.
In Fig. 1, the vertical axis represents ERG (electroretinogram) amplitude, and the horizontal axis is the lapse of time in weeks. Δ: nilvadipine group; □: predonine group; ◇: cyclosporin A group; and ○: control group.

Structure (SMILES) | visual field ([1]; oral prednisolone 40 mg/day reduced stepwise to 10 mg/day, October-November 1999, Figs. 2 and 3) | ERG (electroretinogram) amplitude (apoptosis caused by CAR) | static visual field examination / visual sensitivity ([1]; two months after start of oral nilvadipine, following 0.3 ml Depo-Medrol sub-Tenon's injection to both eyes, Figs. 4 and 5)
C[C@]12C=CC(=O)C=C1CC[C@@H]1[C@@H]2[C@@H](O)C[C@@]2(C)[C@H]1CC[C@]2(O)C(=O)CO [prednisolone] | could not improve the visual field | – | –
COC(=O)C1=C(C#N)NC(C)=C(C(=O)OC(C)C)C1c1cccc([N+](=O)[O-])c1 (stereo not drawn) [nilvadipine, isopropyl 6-cyano-5-methoxycarbonyl-2-methyl-4-(3-nitrophenyl)-1,4-di hydropyridine-3-carboxylate ester] | – | more effective than predonine and cyclosporin A | remarkable improvement of visual sensitivity

— EP1260232A1, “REMEDIES FOR MALIGNANT TUMOR-CONCOMITANT NEUROSIS AND AZOOR OR ANALOGOUS DISEASES THEREOF” (priority 2000, dated 2001)
